From the supplement of paper PMC4862054

Experiments:
Conditions in all cases: 72 h
CAL-148 [1] = test system: CAL-148
In short: (§1)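 Compound dissolved in 5 µl medium was placed in 384-well plates before 20 µl of breast cancer cell suspension was added, and the plates were incubated for 72 h. Cells then received 2.5 µl CellTiter-Blue for 2 h at 37 °C, and fluorescence was read at 560/590 nm. EC50 values come from percent-inhibition dose-response fits that were censored at the highest concentration, with plates normalised to vehicle and a positive kill control and rows with a zero drug sensitivity score excluded.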

CAL-148 [2] = test system: CAL-148; remark: listed apart in the source
In short: (§2)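 Two sequential readouts followed a 72 h incubation of breast cancer cell lines with compound at 5 concentrations in 10-fold steps over a compound-specific 10,000-fold range: CellTox Green fluorescence (485/520 nm) for cell death, then CellTiter-Glo luminescence, after 10 min at room temperature, for viability. Each plate was normalised to 0.1 % DMSO and a positive kill control. Dose-response curves were fitted for EC50, censored at the top concentration.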

CAL-120 [3] = test system: CAL-120
In short: as §2

MDA-MB-453 [4] = test system: MDA-MB-453
In short: as §2

BT-549 [5] = test system: BT-549
In short: as §2

MFM-223 [6] = test system: MFM-223
In short: as §2

Hs578T [7] = test system: Hs578T
In short: as §2

DU-4475 [8] = test system: DU-4475
In short: as §2

HCC1143 [9] = test system: HCC1143
In short: as §2

CAL-51 [10] = test system: CAL-51
In short: as §2

BT-474 [11] = test system: BT-474
In short: as §2

MDA-MB-436 [12] = test system: MDA-MB-436
In short: as §2

HDQ-P1 [13] = test system: HDQ-P1
In short: as §2

MCF-10A [14] = test system: MCF-10A
In short: as §2

SK-BR-3 = test system: SK-BR-3
In short: as §2

MDA-MB-231 [15] = test system: MDA-MB-231
In short: as §2

HCC1599 [16] = test system: HCC1599
In short: as §2

CAL-85-1 [17] = test system: CAL-85-1
In short: as §2

HCC1937 [18] = test system: HCC1937
In short: as §2

MDA-MB-468 = test system: MDA-MB-468
Protocol: (§3)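 Drug sensitivity and resistance testing (DSRT) of breast cancer cell lines in 384-well plates, 5 concentrations in 10-fold dilutions over a compound-specific 10,000-fold range. After 72 h, cytotoxicity was read by CellTox Green fluorescence and viability by CellTiter-Glo luminescence (multiplexed), normalised to DMSO and benzethonium chloride controls. EC50 is the inflection point of the fitted dose-response curve (bottom asymptote free, so it can be relative for partial curves) and is censored at the highest tested concentration. Rows with DSS 0 (no meaningful response) were excluded.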

CAL-148 [19] = test system: CAL-148; remark: listed apart in the source
Protocol: as §3

CAL-120 [20] = test system: CAL-120; remark: listed apart in the source
Protocol: as §3

MDA-MB-453 [21] = test system: MDA-MB-453; remark: listed apart in the source
Protocol: as §3

MFM-223 [22] = test system: MFM-223; remark: listed apart in the source
Protocol: as §3

Hs578T [23] = test system: Hs578T; remark: listed apart in the source
Protocol: as §3

DU-4475 [24] = test system: DU-4475; remark: listed apart in the source
Protocol: as §3

HCC1143 [25] = test system: HCC1143; remark: listed apart in the source
Protocol: as §3

CAL-51 [26] = test system: CAL-51; remark: listed apart in the source
Protocol: as §3

BT-474 [27] = test system: BT-474; remark: listed apart in the source
Protocol: as §3

HDQ-P1 [28] = test system: HDQ-P1; remark: listed apart in the source
Protocol: as §3

MCF-10A [29] = test system: MCF-10A; remark: listed apart in the source
Protocol: as §3

MDA-MB-231 [30] = test system: MDA-MB-231; remark: listed apart in the source
Protocol: as §3

HCC1599 [31] = test system: HCC1599; remark: listed apart in the source
Protocol: as §3

CAL-85-1 [32] = test system: CAL-85-1; remark: listed apart in the source
Protocol: as §3

HCC1937 [33] = test system: HCC1937; remark: listed apart in the source
Protocol: as §3

HCC1143 [34] = test system: HCC1143; remark: listed apart in the source
In short: as §1

HCC1599 [35] = test system: HCC1599; remark: listed apart in the source
In short: as §1

MDA-MB-436 [36] = test system: MDA-MB-436; remark: listed apart in the source
Protocol: as §3

BT-549 [37] = test system: BT-549; remark: listed apart in the source
Protocol: as §3

Row | EC50, CellTiter-Glo (MDA-MB-453 [4]) [µM] | EC50, CellTiter-Glo (BT-549 [5]) [µM] | EC50, CellTiter-Glo (HCC1143 [9]) [µM] | EC50, CellTiter-Glo (BT-474 [11]) [µM] | EC50, CellTiter-Glo (MDA-MB-436 [12]) [µM] | EC50, CellTiter-Glo (SK-BR-3) [µM] | EC50, CellTiter-Glo (MDA-MB-231 [15]) [µM] | EC50, CellTiter-Glo (HCC1599 [16]) [µM] | EC50, CellTiter-Glo (HCC1937 [18]) [µM] | EC50, CellTiter-Blue viability (HCC1143 [34]) [µM] | EC50, CellTiter-Blue viability (HCC1599 [35]) [µM] | Structure (SMILES) | EC50, CellTiter-Blue viability (CAL-148 [1]) [µM] | EC50, CellTiter-Glo (CAL-148 [2]) [µM] | EC50, CellTiter-Glo (CAL-120 [3]) [µM] | EC50, CellTiter-Glo (MFM-223 [6]) [µM] | EC50, CellTiter-Glo (Hs578T [7]) [µM] | EC50, CellTiter-Glo (DU-4475 [8]) [µM] | EC50, CellTiter-Glo (CAL-51 [10]) [µM] | EC50, CellTiter-Glo (HDQ-P1 [13]) [µM] | EC50, CellTiter-Glo (MCF-10A [14]) [µM] | EC50, CellTiter-Glo (CAL-85-1 [17]) [µM] | EC50, CellTox Green (MDA-MB-468) [µM] | EC50, CellTox Green (CAL-148 [19]) [µM] | EC50, CellTox Green (CAL-120 [20]) [µM] | EC50, CellTox Green (MDA-MB-453 [21]) [µM] | EC50, CellTox Green (MFM-223 [22]) [µM] | EC50, CellTox Green (Hs578T [23]) [µM] | EC50, CellTox Green (DU-4475 [24]) [µM] | EC50, CellTox Green (HCC1143 [25]) [µM] | EC50, CellTox Green (CAL-51 [26]) [µM] | EC50, CellTox Green (BT-474 [27]) [µM] | EC50, CellTox Green (HDQ-P1 [28]) [µM] | EC50, CellTox Green (MCF-10A [29]) [µM] | EC50, CellTox Green (MDA-MB-231 [30]) [µM] | EC50, CellTox Green (HCC1599 [31]) [µM] | EC50, CellTox Green (CAL-85-1 [32]) [µM] | EC50, CellTox Green (HCC1937 [33]) [µM] | EC50, CellTox Green (MDA-MB-436 [36]) [µM] | EC50, CellTox Green (BT-549 [37]) [µM]
1 | 0.00995 | 0.0813 | 0.0335 | 0.0318 | 0.0582 | 0.0137 | 0.0243 | 0.0464 | 0.168 | 0.0274 | 0.0241 | Cc1[nH]c2ccccc2c1CCNCc1ccc(/C=C/C(=O)NO)cc1 [Panobinostat] | 0.0129 | 0.021 | 0.0623 | 0.0276 | 0.0432 | 0.0183 | 0.0226 | 0.115 | 0.0891 | 0.0334 | 0.133 | 0.0186 | 0.0684 | 0.043 | 0.182 | 0.0286 | 0.0203 | 0.0717 | 0.0308 | 0.0278 | 0.193 | 0.579 | 0.0216 | 0.112 | 0.0332 | 0.071 | – | –
2 | 2.89 | 9.05 | – | 3.5 | 6.38 | > 10 | 4.56 | 8.02 | > 10 | 0.00384 | 7.36 | CNC(=O)c1cc(Oc2ccc(NC(=O)Nc3ccc(Cl)c(C(F)(F)F)c3)c(F)c2)ccn1 [Regorafenib] | – | 4.59 | 9.95 | 1.15 | 2.29 | 2.97 | 0.216 | 5.11 | 1.88 | – | – | – | – | – | – | – | – | – | – | – | – | – | – | – | – | 4.88 | – | –
3 | 0.00122 | 0.00044 | 0.00091 | – | 0.00103 | 0.00078 | – | – | 0.00046 | 0.001 | – | CO[C@H]1C[C@@H]2CC[C@@H](C)[C@@](O)(O2)C(=O)C(=O)N2CCCC[C@H]2C(=O)O[C@H]([C@H](C)C[C@@H]2CC[C@@H](OP(C)(C)=O)[C@H](OC)C2)CC(=O)[C@H](C)/C=C(\C)[C@@H](O)[C@@H](OC)C(=O)[C@H](C)C[C@H](C)/C=C/C=C/C=C/1C [Ridaforolimus] | 0.00064 | 0.00227 | 0.0009 | 0.00098 | 0.00042 | 0.00224 | 0.00161 | 0.00662 | – | 0.00057 | – | – | – | – | – | – | – | – | – | – | 0.00035 | – | – | – | – | – | 0.0645 | –
4 | 8.86 | 1.73 | – | 4.65 | 8.14 | 2.78 | 6.23 | 5.24 | > 10 | – | 1.61 | c1ccc2c(CCNc3ccc(Nc4ccncc4)cc3)c[nH]c2c1 [Serdemetan] | 4.53 | 2.49 | – | > 10 | 9.71 | 2.37 | 0.315 | 1.23 | – | 8.46 | – | 2.31 | – | – | 7.78 | – | 1.81 | – | 0.285 | – | – | – | 8.8 | – | – | – | – | –
5 | 0.0558 | 0.125 | 0.405 | 0.0932 | 0.335 | – | 0.366 | – | 0.0813 | 0.189 | – | CC(C)C[C@@H](C(=O)N[C@H](C(=O)OC1CCCC1)c1ccccc1)[C@H](O)C(=O)NO [Tosedostat] | 2.75 | 0.327 | 0.127 | 0.528 | 8.27 | – | 0.854 | 0.63 | – | 0.182 | 0.151 | – | 0.163 | – | – | > 10 | – | 7.2 | 0.0355 | 1.56 | 0.851 | – | 0.0529 | – | 0.14 | – | 0.00914 | 1.39
6 | 3.15 | – | – | 7.62 | 4.1 | 6.17 | 4.72 | – | > 10 | – | – | COc1cc2c(NC3CCN(C(C)C)CC3)nc(N3CCC(F)(F)CC3)nc2cc1OCCCN1CCCC1 [UNC0642] | – | 5.46 | – | 5.79 | – | – | – | 9.83 | 6.61 | 2.99 | 3.39 | 8.4 | – | 7.17 | – | – | – | – | – | 2.68 | – | 4.92 | 2.09 | – | 2.49 | 7.07 | 0.0209 | –
7 | 0.0252 | 0.0655 | 0.0114 | 0.00416 | 0.0039 | 0.0168 | 0.00802 | 0.00729 | 0.0112 | 0.0262 | 0.012 | COCC[n+]1c2c(n(Cc3cnccn3)c1C)C(=O)c1ccccc1C2=O [YM155] | 0.0116 | 0.0199 | 0.00332 | 0.0272 | 0.212 | 0.0578 | 0.0166 | 0.0173 | 0.0272 | 0.0055 | 0.00924 | 0.0342 | 0.00634 | 0.347 | 0.836 | 2.6 | 0.418 | 0.00159 | 0.0302 | 0.0179 | 0.033 | 0.0128 | 0.0144 | 0.0585 | 0.0058 | 0.0248 | 0.0242 | 0.272
